ChEMBL document CHEMBL1144007, “Activity of Mannich bases of 7-hydroxycoumarin against Flaviviridae” (Bioorg Med Chem, 2008)
Active and inactive are the calls of the source.

What was measured:
[1] = system: Vesicular stomatitis virus; assay: Antiviral activity against vesicular stomatitis virus; format: functional, organism-based
Vaccinia virus = assay: Antiviral activity against vaccinia virus; format: functional, organism-based; details: Orthopoxvirus vaccinia
Reovirus sp. = assay: Antiviral activity against Reovirus; format: functional, organism-based
[2] = system: Human immunodeficiency virus 1; assay: Antiviral activity against HIV1; format: functional, organism-based
[3] = Cytotoxicity against human MT4 cells after 96 hrs by MTT method; format: cell-based
[4] = system: Bovine viral diarrhea virus 1; assay: Antiviral activity against BVDV NADL in MDBK cells assessed as protection from virus-induced cytopathogenicity by MTT method; format: functional, organism-based; details: Bovine viral diarrhea virus isolates and strains
Yellow fever virus = assay: Antiviral activity against YFV in BHK cells assessed as protection from virus-induced cytopathogenicity by MTT method; format: functional, organism-based
[5] = system: Respiratory syncytial virus; assay: Antiviral activity against RSV A2 in VERO76 cells assessed as reduction of plaque number by MTT method; format: functional, organism-based; details: human respiratory syncytial virus, A2, Vero 76
Coxsackievirus B2 = assay: Antiviral activity against coxsackie B2 virus; format: functional, organism-based
Poliovirus 1 = assay: Antiviral activity against Human poliovirus 1 Sabin; format: functional

For `O=c1ccc2ccc(O)c(CN3CCCCC3)c2o1`, the Activity [1] was “inactive”, the Activity (Vaccinia virus) was “inactive” and the Activity (Reovirus sp.) was “inactive”. For the same compound, the Activity [2] was “inactive”, the CC50 at 96 h [3] was > 100 µM and the EC50 [4] was > 100 µM. For the same compound, the EC50 (Yellow fever virus) was > 100 µM, the EC50 [5] was > 100 µM and the Activity (Coxsackievirus B2) was “inactive”. For the same compound, the Activity (Poliovirus 1) was “inactive”.

For `CCC(=O)Oc1ccc2ccc(=O)oc2c1Cc1c(C)[nH]c2ccccc12`, the Activity [1] was “inactive”, the Activity (Vaccinia virus) was “inactive” and the Activity (Reovirus sp.) was “inactive”. The Activity [2] was “inactive”, the CC50 at 96 h [3] was 80 µM and the EC50 [4] was > 51 µM. For the same compound, the EC50 (Yellow fever virus) was > 100 µM, the EC50 [5] was > 100 µM and the Activity (Poliovirus 1) was “inactive”.

For `CC(=O)c1ccc(N2CCN(Cc3c(O)ccc4c(C)cc(=O)oc34)CC2)cc1`, the Activity [1] was “inactive”, the Activity (Vaccinia virus) was “inactive” and the Activity (Reovirus sp.) was “inactive”. For the same compound, the Activity [2] was “inactive”, the CC50 at 96 h [3] was 59 µM and the EC50 [4] was > 100 µM. For the same compound, the EC50 (Yellow fever virus) was > 100 µM, the EC50 [5] was > 100 µM and the Activity (Poliovirus 1) was “inactive”.

For `CCOC(=O)N1CCN(Cc2c(OC(=O)c3ccccc3)ccc3ccc(=O)oc23)CC1`, the Activity [1] was “inactive”, the Activity (Vaccinia virus) was “inactive” and the Activity (Reovirus sp.) was “inactive”. For the same compound, the Activity [2] was “inactive”, the CC50 at 96 h [3] was > 100 µM and the EC50 [4] was > 100 µM. For the same compound, the EC50 (Yellow fever virus) was > 100 µM, the EC50 [5] was 90 µM and the Activity (Poliovirus 1) was “inactive”.

For `CC(=O)Oc1ccc2ccc(=O)oc2c1Cc1c(C)[nH]c2ccccc12`, the Activity [1] was “inactive”, the Activity (Vaccinia virus) was “inactive” and the Activity (Reovirus sp.) was “inactive”. The Activity [2] was “inactive”, the CC50 at 96 h [3] was 62 µM and the EC50 [4] was > 86 µM. For the same compound, the EC50 (Yellow fever virus) was > 73 µM, the EC50 [5] was > 100 µM and the Activity (Poliovirus 1) was “inactive”.

For `CC(=O)Oc1ccc2ccc(=O)oc2c1Cc1c(-c2ccccc2)[nH]c2ccccc12`, the Activity [1] was “inactive”, the Activity (Vaccinia virus) was “inactive” and the Activity (Reovirus sp.) was “inactive”. For the same compound, the Activity [2] was “inactive”, the CC50 at 96 h [3] was > 100 µM and the EC50 [4] was > 57 µM. For the same compound, the EC50 (Yellow fever virus) was > 100 µM, the EC50 [5] was > 100 µM and the Activity (Poliovirus 1) was “inactive”.

For `CCCOc1ccc2c(C)cc(=O)oc2c1CN1CCCCC1`, the Activity [1] was “inactive”, the Activity (Vaccinia virus) was “inactive” and the Activity (Reovirus sp.) was “inactive”. The Activity [2] was “inactive”, the CC50 at 96 h [3] was > 100 µM and the EC50 [4] was 38 µM. The EC50 (Yellow fever virus) was > 100 µM, the EC50 [5] was > 100 µM and the Activity (Poliovirus 1) was “inactive”.

In the case of `Cc1cc(=O)oc2c(CN3CCN(C)CC3)c(OC(=O)c3ccccc3)ccc12`, the Activity [1] is reported as “inactive”, the Activity (Vaccinia virus) is reported as “inactive” and the Activity (Reovirus sp.) is reported as “inactive”. For the same compound, the Activity [2] was “inactive”, the CC50 at 96 h [3] was > 100 µM and the EC50 [4] was > 100 µM. For the same compound, the EC50 (Yellow fever virus) was > 100 µM, the EC50 [5] was > 100 µM and the Activity (Poliovirus 1) was “inactive”.

With `COCCN(CCOC)c1oc2cc(OC)ccc2c(=O)c1Cc1c(OC(C)=O)ccc2c(C)cc(=O)oc12` the Activity [1] was “inactive”, the Activity (Vaccinia virus) was “inactive” and the Activity (Reovirus sp.) was “inactive”. The Activity [2] was “inactive”, the CC50 at 96 h [3] was > 100 µM and the EC50 [4] was 61 µM. For the same compound, the EC50 (Yellow fever virus) was > 100 µM, the EC50 [5] was 5 µM and the Activity (Poliovirus 1) was “inactive”.

In the case of `Cc1cc(=O)oc2c(CN3CCCCC3)c(O)ccc12`, the Activity [1] is reported as “inactive”, the Activity (Vaccinia virus) is reported as “inactive” and the Activity (Reovirus sp.) is reported as “inactive”. For the same compound, the Activity [2] was “inactive”, the CC50 at 96 h [3] was > 100 µM and the EC50 [4] was > 100 µM. For the same compound, the EC50 (Yellow fever virus) was > 100 µM, the EC50 [5] was > 100 µM and the Activity (Poliovirus 1) was “inactive”.

With `Cc1[nH]c2ccccc2c1Cc1c(OC(=O)CCCC(=O)O)ccc2ccc(=O)oc12` the Activity [1] was “inactive”, the Activity (Vaccinia virus) was “inactive” and the Activity (Reovirus sp.) was “inactive”. For the same compound, the Activity [2] was “inactive”, the CC50 at 96 h [3] was 27 µM and the EC50 [4] was > 67 µM. The EC50 (Yellow fever virus) was > 100 µM, the EC50 [5] was > 92 µM and the Activity (Poliovirus 1) was “inactive”.

With `COCCN(CCOC)c1oc2cc(OC)ccc2c(=O)c1Cc1c(OC(C)=O)ccc2ccc(=O)oc12` the Activity [1] was “inactive”, the Activity (Vaccinia virus) was “inactive” and the Activity (Reovirus sp.) was “inactive”. For the same compound, the Activity [2] was “inactive”, the CC50 at 96 h [3] was > 100 µM and the EC50 [4] was > 100 µM. The EC50 (Yellow fever virus) was > 100 µM, the EC50 [5] was 7 µM and the Activity (Poliovirus 1) was “inactive”.

With `CCC(=O)Oc1[nH]c2ccccc2c1Cc1c(OC(C)=O)ccc2ccc(=O)oc12` the Activity [1] was “inactive”, the Activity (Vaccinia virus) was “inactive” and the Activity (Reovirus sp.) was “inactive”. For the same compound, the Activity [2] was “inactive”, the CC50 at 96 h [3] was 67 µM and the EC50 [4] was > 64 µM. The EC50 (Yellow fever virus) was > 72 µM, the EC50 [5] was 60 µM and the Activity (Poliovirus 1) was “inactive”.

With `O=C(Oc1ccc2ccc(=O)oc2c1CN1CCN(Cc2ccc3c(c2)OCO3)CC1)c1ccccc1` the Activity [1] was “inactive”, the Activity (Vaccinia virus) was “inactive” and the Activity (Reovirus sp.) was “inactive”. The Activity [2] was “inactive”, the CC50 at 96 h [3] was 74 µM and the EC50 [4] was 77 µM. The EC50 (Yellow fever virus) was > 100 µM, the EC50 [5] was 85 µM and the Activity (Poliovirus 1) was “inactive”.

For `Cc1[nH]c2ccccc2c1Cc1c(OC(=O)CCCC(=O)O)ccc2c(C)cc(=O)oc12`, the Activity [1] was “inactive”, the Activity (Vaccinia virus) was “inactive” and the Activity (Reovirus sp.) was “inactive”. For the same compound, the Activity [2] was “inactive”, the CC50 at 96 h [3] was 29 µM and the EC50 [4] was > 69 µM. For the same compound, the EC50 (Yellow fever virus) was > 64 µM, the EC50 [5] was > 100 µM and the Activity (Poliovirus 1) was “inactive”.

For `CN1CCN(Cc2c(O)ccc3ccc(=O)oc23)CC1`, the Activity [1] was “inactive”, the Activity (Vaccinia virus) was “inactive” and the Activity (Reovirus sp.) was “inactive”. The Activity [2] was “inactive”, the CC50 at 96 h [3] was > 100 µM and the EC50 [4] was > 100 µM. For the same compound, the EC50 (Yellow fever virus) was > 100 µM, the EC50 [5] was > 100 µM and the Activity (Poliovirus 1) was “inactive”.
